The target of data set [1] is T1, fatty acid amide hydrolase (FAAH) (Homo sapiens, UniProt O00519).
T1 construct: purchased Cayman 10005196
T1 sequence (O00519 1-579): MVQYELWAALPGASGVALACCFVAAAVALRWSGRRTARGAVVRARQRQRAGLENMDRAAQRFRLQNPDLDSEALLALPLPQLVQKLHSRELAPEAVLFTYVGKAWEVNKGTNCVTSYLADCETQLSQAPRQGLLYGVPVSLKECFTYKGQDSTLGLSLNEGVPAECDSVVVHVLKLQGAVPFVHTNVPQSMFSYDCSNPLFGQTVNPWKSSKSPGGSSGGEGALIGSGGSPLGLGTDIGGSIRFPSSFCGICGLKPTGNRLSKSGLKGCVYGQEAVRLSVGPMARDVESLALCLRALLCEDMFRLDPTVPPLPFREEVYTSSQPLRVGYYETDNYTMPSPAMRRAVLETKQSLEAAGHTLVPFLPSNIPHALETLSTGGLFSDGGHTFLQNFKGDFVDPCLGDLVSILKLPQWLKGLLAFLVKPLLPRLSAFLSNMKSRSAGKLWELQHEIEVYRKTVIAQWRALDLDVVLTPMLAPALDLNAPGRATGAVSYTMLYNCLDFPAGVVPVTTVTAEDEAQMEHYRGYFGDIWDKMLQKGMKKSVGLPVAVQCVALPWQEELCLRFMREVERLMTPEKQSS
As to the kind of experiment: Cayman plate-based fluorometric FAAH assay kit. It is filed as biochemical. The method, then:
The inhibitory activity of the final products was evaluated against fatty acid amide hydrolase with Cayman plate-based fluorometric FAAH assay kit (item number 10005196) using an excitation wavelength of 340 nm and an emission wavelength of 450 nm. The enzyme was incubated with inhibitors for 5 min in […] Tris/HCl buffer (pH 9.0) at 37 °C. AMC-arachidonoyl amide and JZL-195 were used as substrate and positive control respectively. All test samples were dissolved in DMSO.
The IC50 of the compounds with inhibitory activity above 70% and JZL-195, reference compound, were investigated at concentrations of 0.1, 5, 10, 20, 50 and 100 nM. The results are summarized in Table 1 Evaluation of the 5a, 5b and 7 derivatives have well illustrated the effect of phenyl group on inhibitory activity, which is probably directly related to lipophilicity and π-π interactions in lipophilic envelope.

In a further data set the target is FAAH. Also on record: method as in PMID 28535469, PMID 21764305, PMID 10805767. To be noted: 8 and 9, cited from earlier work.
The mark [2] stands for this setting: 100 nM compound, 5 min incubation, Tris/HCl pH 9.0, 37 °C, substrate AMC-arachidonoyl amide, read-out: %inhibition at 100nM.
[3] abbreviates: concentrations 0.1, 5, 10, 20, 50 and 100 nM, fluorometric FAAH assay, read-out: IC50.

Results on 17 compounds are retold here after publication PMC8019892, “Para-Aminobenzohydrazide Derivatives as Fatty Acid Amide Hydrolase Inhibitors: Design, Synthesis and Biological Evaluation” (Iranian Journal of Pharmaceutical Research : IJPR, 2020).

SMILES strings stand for the structures. Like-named read-outs stand apart in the source and are kept apart here.

In general, melting point refers to the temperature, or range, at which the solid turns liquid. The term inhibition denotes the drop in the measured response relative to a control, in per cent. As usually defined, the IC50 is the point on the concentration scale where inhibition reaches its midpoint. By Ki is commonly meant the equilibrium dissociation constant of an inhibitor or competing ligand from its target.

For `O=C(NN1C(=O)CCC1=O)c1ccc(N2C(=O)CCC2=O)cc1` [Compound 9, N, 4-bis (2,5-dioxopyrrolidin-1-yl) benzamide], the melting point lay in the range of 273 to 275 °C. Moreover, in data set [1] (setting [2]), the inhibition at 0.1 µM turned out to be 45.1%.
The corresponding values for `NC(=O)NNC(=O)c1ccc(NC(=O)c2ccccc2)cc1` [Compound 5a, 2-(4-benzamidobenzoyl) hydrazine-1-carboxamide] are 283 to 285 °C and 58.5%.
On to `O=C(NNC(=O)c1ccc(NC(=O)c2ccc(Cl)cc2)cc1)c1ccc(Cl)cc1` [Compound 10c, 4-chloro-N-(4-(2-(4-chlorobenzoyl) hydrazine-1-carbonyl)phenyl) benzamide], for which the melting point was 315 to 318 °C. For the same compound, the inhibition at 0.1 µM in data set [1] (setting [2]) was 77.3%. Further, the half-maximal inhibitory concentration (IC50) in data set [1] (setting [3]) stood at 12.3 nM.
On to `COc1ccc(C(=O)NNC(=O)c2ccc(NC(=O)c3ccc(OC)cc3)cc2)cc1` [Compound 10d, 4-methoxy-N-(4-(2-(4-methoxybenzoyl) hydrazine-1-carbonyl)phenyl) benzamide], for which the melting point lay in the range of 264 to 266 °C. Besides, the inhibition at 0.1 µM in data set [1] (setting [2]) came out at 77.3%. Moreover, the half-maximal inhibitory concentration (IC50) in data set [1] (setting [3]) was found to be 5.1 nM.
Compound `NC(=O)NNC(=O)c1ccc(NC(=O)c2ccc(Cl)cc2)cc1` [Compound 5b, 2-(4-(4-chlorobenzamido)benzoyl) hydrazine-1-carboxamide] returned a melting point of 325 to 327 °C. In data set [1] (setting [2]), the inhibition at 0.1 µM is 63.4%.
`O=C(NNC(=O)c1ccc([N+](=O)[O-])cc1)c1ccc(NC(=O)c2ccc([N+](=O)[O-])cc2)cc1` [Compound 10f, 4-nitro-N-(4-(2-(4-nitrobenzoyl) hydrazine-1-carbonyl)phenyl) benzamide] showed a melting point of 287 to 289 °C. For the same compound, in data set [1] (setting [2]), the inhibition at 0.1 µM came to 50.5%.
For `O=C(NNC(=O)c1ccccc1C(=O)O)c1ccc(NC(=O)c2ccccc2C(=O)O)cc1` [Compound 12, 2-(2-(4-(2-carboxybenzamido)benzoyl) hydrazine-1-carbonyl) benzoic acid], the melting point was 186 °C. The inhibition at 0.1 µM in data set [1] (setting [2]) amounted to 80%. The 50% inhibitory concentration (IC50) in data set [1] (setting [3]) was found to be 1.62 nM.
`NC(=O)NNC(=O)c1ccc(NC(N)=O)cc1` [Compound 7, 2-(4-ureidobenzoyl) hydrazine-1-carboxamide]: the melting point was 226 to 228 °C (dec.). Moreover, in data set [1] (setting [2]), the inhibition at 0.1 µM is 27.3%.
With `O=C(NNC(=O)c1ccc(NC(=O)c2ccc(F)cc2)cc1)c1ccc(F)cc1` [Compound 10e, 4-fluoro-N-(4-(2-(4-fluorobenzoyl) hydrazine-1-carbonyl)phenyl) benzamide], the melting point was 322 to 325 °C. In addition, the inhibition at 0.1 µM in data set [1] (setting [2]) was determined as 38.9%.
`O=C(NNS(=O)(=O)c1ccccc1)c1ccc(NS(=O)(=O)c2ccccc2)cc1` [Compound 13, N-(4-(2-(phenylsulfonyl) hydrazine-1-carbonyl)phenyl) benzenesulfonamide] registered a melting point of 239 to 241 °C. Further, the inhibition at 0.1 µM in data set [1] (setting [2]) worked out at 31.4%.
Consider `O=C(CCCCCCc1ccccc1)c1nnc(-c2ccccn2)o1` [OL-135 analogue], for which the Ki at FAAH (known FAAH inhibitor, Figure 1) was 0.29 nM.
In the case of `O=C(O)CCC(=O)NNC(=O)c1ccc(NC(=O)CCC(=O)O)cc1` [Compound 11, 4-(2-(4-(3-carboxypropanamido)benzoyl) hydrazineyl)-4-oxobutanoic acid], the melting point was in the range of 185 to 187 °C. Besides, in data set [1] (setting [2]), the inhibition at 0.1 µM turned out to be 51.2%.
The corresponding values for `O=C(NN1C(=O)c2ccccc2C1=O)c1ccc(N2C(=O)c3ccccc3C2=O)cc1` [Compound 8, N, 4-bis (1,3-dioxoisoindolin-2-yl) benzamide] are 316 to 318 °C and 31.3%.
In the case of `Cc1cccnc1NC(=O)CNC(=O)C(C)c1ccc(Nc2ccnc(C(F)(F)F)c2)cc1` (centres unmarked) [TPA-17], in the data set on FAAH (known FAAH inhibitor, Figure 1), the IC50 is 2400 nM. The FAAH inhibitory activity result in the data set with FAAH (previously reported, in words) is given as “mild FAAH inhibitory activity”.
`O=C(NNC(=O)c1cccc(Cl)c1)c1ccc(NC(=O)c2cccc(Cl)c2)cc1` [Compound 10b, 3-chloro-N-(4-(2-(3-chlorobenzoyl) hydrazine-1-carbonyl)phenyl) benzamide]: the melting point is 273 to 275 °C. Besides, in data set [1] (setting [2]), the inhibition at 0.1 µM came out at 77.4%. Further, the IC50 in data set [1] (setting [3]) came to 13.3 nM.
With `O=C(Oc1ccc([N+](=O)[O-])cc1)N1CCN(Cc2cccc(Oc3ccccc3)c2)CC1` [JZL-195, reference compound], in data set [1], the midpoint of inhibition, the IC50, lay at 1.31 nM. In addition, the inhibition at 0.1 µM in data set [1] (pH 9, read-out: %inhibition at 100nM) was 81%.
`O=C(NNC(=O)c1ccc(NC(=O)c2ccccc2)cc1)c1ccccc1` [Compound 10a, N-(4-(2-benzoylhydrazine-1-carbonyl)phenyl) benzamide] showed a melting point of 265 to 267 °C. In addition, in data set [1] (setting [2]), the inhibition at 0.1 µM came to 81.1%. The IC50 in data set [1] (setting [3]) came to 20.2 nM.
